# Reference: US20120101153A1, “ROCAGLAOL DERIVATIVES AS CARDIOPROTECTANT AGENTS AND AS ANTINEOPLASTIC AGENTS” (Universite De Strasbourg, priority 2008, published 2012)
# pIC50: −log10 of the molar value. Read-outs that look alike come from different tables or passages of the source.
# Tests used:
# [1] = test system: PC3 (prostate adenocarcinoma); experiment: MTS assay, cytotoxicity, PC3; settings: Homo sapiens, read-out: Cytotoxicity (IC50)
# Method: (§1) The human cell lines HCT116 (colon adenocarcinoma), PC3 (prostate adenocarcinoma) and HCT15 (colon adenocarcinoma) were obtained from ECACC (Wiltshire, UK).
# (§2) The cell lines HCT116, HCT15, MCF7, MDA435, MDA231, PC3, OV3, HL60R and HL60 were grown in RPMI medium, in particular supplemented with 10% fetal calf serum, in the presence of penicillin, streptomycin and fungizone in 75 cm^2 flask under 5% CO2.
# (§3) Cells were plated in 96-well tissue culture plates in 200 μl medium and cultured during 24 h before to be treated with compounds dissolved in DMSO (compound concentrations at a range of 0.5 nM to 10 μM) using a Biomek 2000 or 3000 (Beckman). Controls received the same volume of DMSO (1% final volume). After a 72 h exposure, MTS reagent (Promega) was added and incubated for 3 h at 37° C. The absorbance was then monitored at 490 nm and results were expressed as the value [1-(OD490 treated/OD490 control)×100] corresponding to the percentage of inhibition of cell proliferation.
# [2] = test system: HL60 (promyeocytic leukaemia); experiment: MTS assay, inhibition of cell proliferation, HL60
# Method: (§4) The human cell lines HL60 (promyeocytic leukaemia), MDA435 (breast ductal carcinoma; ATCC reference HBT129) and MDA231 (breast adenocarcinoma; ATCC reference HBT26) were obtained from ATCC. […] SK-OV3 cells (or OV3, ATCC reference HTB77) were kindly provided by NCI (Frederick, Md.).
# (§5) The cell lines HCT116, HCT15, MCF7, MDA435, MDA231, PC3, OV3, HL60R and HL60 were grown in RPMI medium, in particular supplemented with 10% fetal calf serum, in the presence of penicillin, streptomycin and fungizone in 75 cm^2 flask under 5% CO2. […] The medium was changed every 2-3 days.
# as §3
# SK-OV3 cells (OV3) = experiment: MTS assay, cytotoxicity, OV3; settings: Homo sapiens, SK-OV-3, read-out: Cytotoxicity (IC50)
# Method: as §4, §5, §3
# [3] = test system: MDA231 (breast adenocarcinoma); experiment: MTS assay, cytotoxicity, MDA231; settings: Homo sapiens, MDA-MB-231, read-out: Cytotoxicity (IC50)
# Method: as §4, §5, §3
# [4] = test system: HCT116 (colon adenocarcinoma); experiment: MTS assay, inhibition of cell proliferation, HCT116; settings: Homo sapiens, HCT-116, read-out: Cytotoxicity (IC50)
# Method: as §1, §2, §3
# [5] = test system: KB (epidermoid carcinoma); experiment: MTS assay, inhibition of cell proliferation, KB; settings: Homo sapiens, read-out: Cytotoxicity (IC50)
# Method: The human cell lines KB (epidermoid carcinoma) and HepG2 (hepatocarcinoma) were obtained from ECACC (Salisbury, UK) and grown in D-MEM medium supplemented with 10% fetal calf serum, in the presence of penicilline, streptomycine and fungizone in 75 cm^2 flask under 5% CO2.
# as §3
# [6] = test system: MDA435 (breast ductal carcinoma); experiment: MTS assay, cytotoxicity, MDA435; settings: Homo sapiens, MDA435, read-out: Cytotoxicity (IC50)
# Method: as §4, §5, §3
# [7] = test system: HL60R (resistant HL60 cells); experiment: MTS assay, cytotoxicity, HL60R; settings: Homo sapiens, read-out: Cytotoxicity (IC50)
# Method: as §2, §3
# [8] = Homo sapiens, HL-60, read-out: Cytotoxicity (IC50)
# [9] = read-out: Cytotoxicity (IC50), HL60, MTS, Table 2
structure (smiles),measurement,setting,value
"COC(=O)[C@H]1[C@@H](O)[C@@]2(O)c3ccc(OC)cc3O[C@@]2(c2ccc(Br)cc2)[C@@H]1c1ccccc1 (racemic) [FL5, Methyl 3a-(4-bromophenyl)-1,8b-dihydroxy-8-methoxy-1-oxo-3-phenyl-2,3-3a,8b-tetrahydro-cyclopenta[b]benzofuran-2-carboxylate]",pIC50,[1],6.76
same,pIC50,[2]; [8],7.19
same,pIC50,SK-OV3 cells (OV3),7.00
same,pIC50,[3],7.57
same,pIC50,[4],7.02
same,pIC50,[5],6.78
same,pIC50,[6],7.19
same,pIC50,[7],7.36
"COC(=O)[C@H]1[C@@H](O)[C@@]2(O)c3c(OC)cc(OC)cc3O[C@@]2(c2ccc(Br)cc2)[C@@H]1c1ccccc1 (racemic) [FL10, Methyl 3a-(4-bromophenyl)-1,8b-dihydroxy-6,8-dmethoxy-1-oxo-3-phenyl-2,3-3a,8b-tetrahydro-cyclopenta[b]benzofuran-2-Carboxylate]",pIC50,[1],7.54
same,pIC50,[2]; [8],7.85
same,pIC50,SK-OV3 cells (OV3),7.68
same,pIC50,[3],8.06
same,pIC50,[4],7.74
same,pIC50,[5],7.62
same,pIC50,[6],7.82
same,pIC50,[7],7.85
"COc1cc(OC)c2c(c1)O[C@@]1(c3ccc(Br)cc3)[C@H](c3ccccc3)[C@@H](C(=O)N(C)C)[C@@H](O)[C@@]21O (racemic) [FL12, 3a-(4-Bromophenyl)-1,8b-dihydroxy-6,8-dimethoxy-N,N-dimethyl-1-oxo-3-phenyl-2,3-3a,8b-tetrahydro-cyclopenta[b]benzofuran-2-carboxamide]",pIC50,[1],8.14
same,pIC50,[2]; [8],8.40
same,pIC50,SK-OV3 cells (OV3),8.17
same,pIC50,[3],8.57
same,pIC50,[4],8.23
same,pIC50,[5],8.15
same,pIC50,[6],8.49
same,pIC50,[7],7.92
"CNC(=O)[C@H]1[C@@H](O)[C@@]2(O)c3c(OC)cc(OC)cc3O[C@@]2(c2ccc(Br)cc2)[C@@H]1c1ccccc1 (racemic) [FL13, 3a-(4-Bromophenyl)-1,8b-dihydroxy-6,8-dimethoxy-N-methyl-1-oxo-3-phenyl-2,3-3a,8b-tetrahydro-cyclopenta[b]benzofuran-2-carboxamide]",pIC50,[1],8.48
same,pIC50,[2]; [8],8.70
same,pIC50,SK-OV3 cells (OV3),8.42
same,pIC50,[3],8.72
same,pIC50,[4],8.42
same,pIC50,[5],8.40
same,pIC50,[6],8.59
same,pIC50,[7],7.80
"COc1cc(OC)c2c(c1)O[C@@]1(c3ccc(Br)cc3)[C@H](c3ccccc3)[C@@H](C(N)=O)[C@@H](O)[C@@]21O (racemic) [FL14, 3a-(4-Bromophenyl)-1,8b-dihydroxy-6,8-dimethoxy-1-oxo-3-phenyl-2,3-3a,8b-tetrahydro-cyclopenta[b]benzofuran-2-carboxamide]",pIC50,[1],8.43
same,pIC50,[2]; [8],9.00
same,pIC50,SK-OV3 cells (OV3),8.68
same,pIC50,[3],9.00
same,pIC50,[4],8.74
same,pIC50,[5],8.70
same,pIC50,[6],8.82
same,pIC50,[7],7.74
"COc1ccc([C@@]23Oc4cc(OC)cc(OC)c4[C@]2(O)[C@H](O)C[C@H]3c2cccc(F)c2)cc1 (racemic) [FL15, 3a-(4-methoxyphenyl)-6,8-dimethoxy-3-(3-fluorophenyl)-1,2,3,3a-tetrahydro-cyclopenta[b]benzofuran-1,8b(1H)-diol]",pIC50,[5],7.22
"COC(=O)[C@H]1[C@@H](O)[C@@]2(O)c3c(OC)cc(OC)cc3O[C@@]2(c2ccc(OC)cc2)[C@@H]1c1cccc(F)c1 (racemic) [FL16, Methyl 3a-(4-methoxyphenyl)-1,8b-dihydroxy-6,8-dimethoxy-1-oxo-3-(3-fluorophenyl)-2,3-3a,8b-tetrahydro-cyclopenta[b]benzofuran-2-carboxylate]",pIC50,[5],7.55
"COc1cc(OC)c2c(c1)O[C@@]1(c3ccc(Br)cc3)[C@H](c3cccc(F)c3)[C@@H](C(N)=O)[C@@H](O)[C@@]21O (racemic) [FL18, 3a-(4-Bromophenyl)-1,8b-dihydroxy-6,8-dimethoxy-1-oxo-3-(3-fluorophenyl)-2,3-3a,8b-tetrahydro-cyclopenta[b]benzofuran-2-carboxamide]",pIC50,[5],7.85
"COc1cc(OC)c2c(c1)O[C@@]1(c3ccc(Br)cc3)[C@H](c3ccccc3)C[C@@H](OC=O)[C@@]21O (racemic) [FL19, 3a-(4-Bromophenyl)-6,8-dimethoxy-3-phenyl-1,2,3,3a-tetrahydro-cyclopenta[b]benzofuran-1,8b(1H)-diol 1-formate]",pIC50,[2]; [8],8.15
"COc1cc(OC)c2c(c1)O[C@@]1(c3ccc(Br)cc3)[C@H](c3ccccc3)C[C@@H](OC(C)=O)[C@@]21O (racemic) [FL20, 3a-(4-Bromophenyl)-6,8-dimethoxy-3-phenyl-1,2,3,3a-tetrahydro-cyclopenta[b]benzofuran-1,8b(1H)-diol 1-acetate]",pIC50,[2]; [8],7.40
"CCC(=O)O[C@@H]1C[C@@H](c2ccccc2)[C@]2(c3ccc(Br)cc3)Oc3cc(OC)cc(OC)c3[C@]12O (racemic) [FL21, 3a-(4-Bromophenyl)-6,8-dimethoxy-3-phenyl-1,2,3,3a-tetrahydro-cyclopenta[b]benzofuran-1,8b(1H)-diol 1-propionate]",pIC50,[2]; [8],7.30
"COc1cc(OC)c2c(c1)OC1(c3ccc(Br)cc3)C(c3ccccc3)CC(NC=O)C21O (stereo not drawn) [FL22, 3a-(4-Bromophenyl)-6,8-dimethoxy-8b-hydroxy-3-phenyl-1,2,3,3a-tetrahydro-cyclopenta[b]benzofuran-1,8b(1H)-formamide]",pIC50,[2]; [9],7.36
"COc1cc(OC)c2c(c1)OC1(c3ccc(Br)cc3)C(c3ccccc3)CC(NC=O)C21O (stereo not drawn) [FL23, 3a-(4-Bromophenyl)-6,8-dimethoxy-8b-hydroxy-3-phenyl-1,2,3,3a-tetrahydro-cyclopenta[b]benzofuran-1,8b(1H)-formamide]",pIC50,[2]; [9],8.70
"COc1cc(OC)c2c(c1)OC1(c3ccc(Br)cc3)C(c3ccccc3)CC(NS(C)(=O)=O)C21O (stereo not drawn) [FL24, 3a-(4-Bromophenyl)-6,8-dimethoxy-8b-hydroxy-3-phenyl-1,2,3,3a-tetrahydro-cyclopenta[b]benzofuran-1,8b(1H)-methanesulfonamide]",pIC50,[2]; [9],6.24
"COc1cc(OC)c2c(c1)OC1(c3ccc(Br)cc3)C(c3ccccc3)CC(NS(C)(=O)=O)C21O (stereo not drawn) [FL25, 3a-(4-Bromophenyl)-6,8-dimethoxy-8b-hydroxy-3-phenyl-1,2,3,3a-tetrahydro-cyclopenta[b]benzofuran-1,8b(1H)-methanesulfonamide]",pIC50,[2]; [9],7.80
"CC(=O)O[C@@]12CO[C@@H]1C[C@H](O)[C@@]1(C)C(=O)[C@H](O)C3=C(C)[C@@H](OC(=O)[C@H](O)[C@@H](NC(=O)OC(C)(C)C)c4ccccc4)C[C@@](O)([C@@H](OC(=O)c4ccccc4)[C@H]21)C3(C)C [Taxotere, reference compound]",pIC50,[1],8.85
same,pIC50,[2]; [8],9.30
same,pIC50,SK-OV3 cells (OV3),9.29
same,pIC50,[3],10.74
same,pIC50,[4],9.28
same,pIC50,[5],9.77
same,pIC50,[6],9.60
same,pIC50,[7],6.27
"CC[C@]1(O)C[C@@H]2CN(CCc3c([nH]c4ccccc34)[C@@](C(=O)OC)(c3cc4c(cc3OC)N(C)[C@H]3[C@@](O)(C(=O)OC)[C@H](OC(C)=O)[C@]5(CC)C=CCN6CC[C@]43[C@@H]65)C2)C1 [Vinblastin, vinblastine, reference compound]",pIC50,[1],8.26
same,pIC50,[2]; [8],8.95
same,pIC50,SK-OV3 cells (OV3),8.57
same,pIC50,[3],9.20
same,pIC50,[4],8.85
same,pIC50,[5],9.10
same,pIC50,[6],8.91
same,pIC50,[7],< 7.00
